Experimental data reported in US20030207813A1, “Retroviral protease inhibitor combinations” (priority 1995, published 2003).

Tests used:
[1] = test system: NL4(P34-003); experiment: Viral isolate resistance assay per Markowitz et al., NL4(P34-003); type: cell-based, HIV-1; settings: Human immunodeficiency virus 1; Table 11; selected against Example 9, 34 passages
Excerpt: (§1) RF represents the HIV-1 strain HIV-LRF and RFR represents a mixture of resistant strains obtained by selection of RF against the compound of Example 1. RFR comprises a mixture of viral strains having protease genotypes of G48V (14/40 clones); G48V, V82A (18/40 clones); G48V, L90S (2/40 clones); G48V, 154T, V82A (1/40 clones); G48M (1/40 clones); G48V, Q61H (1/40 clones); V13I, G48V (1/40 clones); G48V, F53L, V82A (1/40 clones); and G48V, V82A, C95Y (1/40 clones). RFR2 represents a mixture of resistant strains obtained by cloning RFR by three rounds of growth at limiting dilution. RFR2 comprises a mixture of viral strains having protease genotypes of G48V, V82A (13/15 clones); G17E, G48V, V82A (1/15 clones); and G48V, V82A, N37D, N88D (1/15 clones). RFRR represents a mixture of resistant strains obtained by selection of RF against the compounds of Examples 1 and 2 and then cloning by three rounds of growth at limiting dilution. RFRR comprises a mixture of viral strains having protease genotypes of G48V, 154T, L63P, V82A (7/9 clones); G48V, 154T, L63P, V82A, N88S (1/9 clones); and G48V, 154T, L63P, G73M, V82A (1/9 clones). SF162 represents the HIV-1 strain SF-162 and SF162R represents a mixture of resistant strains obtained by selection of SF162 against the compound of Example 1. SF162R comprises a mixture of viral strains having protease genotypes of M461, F53L, L63P, A71V, N88D (2/3 clones); and M46I, F53L, L63P, A71V, N88D, Q92R (1/3 clones). 89-959 represents the HIV-1 strain 89-959 and 89-959R represents a mixture of resistant strains obtained by selection of 89-959 against the compound of Example 2. 89-959R comprises a mixture of viral strains having protease genotypes of N88S (4/5 clones); and D25N, T26A, D30N, D37N, R41K, G73D, R87K, N88S (1/4 clones). NL4 represents the HIV-1 strain HIV-1NL4-3. NL4(G48V) represents a strain having a synthetically generated site-directed mutation in the protease from glycine to valine at amino acid position number 48. […]

[2] = test system: NL4(P22-538); experiment: Viral isolate resistance assay per Markowitz et al., NL4(P22-538); type: cell-based, HIV-1; settings: Human immunodeficiency virus 1; Table 9; selected against Example 10, 22 passages; read-out: Virus Isolate (EC50 nM) NL4(P22-538)
Excerpt: as §1, with “48. NL4(I84V) represents a strain having a synthetically generated site-directed mutation in the protease from isoleucine to valine at amino acid position number 84. NL4(R8Q,M46I) represents a strain having synthetically generated site-directed mutations in the protease from arginine to glutamine at amino acid position number 8 and methionine to isoleucine at amino acid position number 46. NL4(P22-538) represents a mixture of resistant strains obtained by selection of HIV-1NL4-3 against the compound of Example 10 after 22 passages comprising protease genotypes M46I, L63P, A71V, V82F, I84V (4/10); M46I, L63P, V82F, I84V (3/10); and M46I, A71V, V82F, I84V (3/10). NL4(P37-538) represents resistant strains obtained by selection of HIV-1NL4-3 against the compound of Example 10 after 37 passages comprising protease genotype M46I, L63P, A71V, 184A. NL4(538/524) represents resistant strains obtained by selection of NL4(P22-538) against the compound of Example 5 after 24 passages comprising protease genotype M46I, L63P, A71V, 184A. NL4(538/P7-AG) represents a mixture of resistant strains obtained by selection of NL4(P22-538) against the compound of Example 12 after 7 passages comprising protease genotypes M46I, L63P, A71V, 184A; and V321, V82I. NL4(538/P24-AG) represents resistant strains obtained by selection of NL4(P22-538) against the compound of Example 12 after 24 passages comprising protease genotype M46I, L63P, A71V, 184A.” for “48.”

[3] = test system: NL4(538/524); experiment: Viral isolate resistance assay per Markowitz et al., NL4(538/524); type: cell-based, HIV-1; settings: Human immunodeficiency virus 1; Table 10; NL4(P22-538) selected against Example 5, 24 passages
Excerpt: as §1, with “48. NL4(I84V) represents a strain having a synthetically generated site-directed mutation in the protease from isoleucine to valine at amino acid position number 84. NL4(R8Q,M46I) represents a strain having synthetically generated site-directed mutations in the protease from arginine to glutamine at amino acid position number 8 and methionine to isoleucine at amino acid position number 46. NL4(P22-538) represents a mixture of resistant strains obtained by selection of HIV-1NL4-3 against the compound of Example 10 after 22 passages comprising protease genotypes M46I, L63P, A71V, V82F, I84V (4/10); M46I, L63P, V82F, I84V (3/10); and M46I, A71V, V82F, I84V (3/10). NL4(P37-538) represents resistant strains obtained by selection of HIV-1NL4-3 against the compound of Example 10 after 37 passages comprising protease genotype M46I, L63P, A71V, 184A. NL4(538/524) represents resistant strains obtained by selection of NL4(P22-538) against the compound of Example 5 after 24 passages comprising protease genotype M46I, L63P, A71V, 184A. NL4(538/P7-AG) represents a mixture of resistant strains obtained by selection of NL4(P22-538) against the compound of Example 12 after 7 passages comprising protease genotypes M46I, L63P, A71V, 184A; and V321, V82I. NL4(538/P24-AG) represents resistant strains obtained by selection of NL4(P22-538) against the compound of Example 12 after 24 passages comprising protease genotype M46I, L63P, A71V, 184A.” for “48.”

[4] = test system: NL4(R8Q,M46I); experiment: Viral isolate resistance assay per Markowitz et al., NL4(R8Q,M46I); type: cell-based, HIV-1; settings: Human immunodeficiency virus 1, read-out: Virus Isolate (EC50 nM) NL4(R8O, M46I)
Excerpt: as §1

[5] = test system: NLA(P19-003); experiment: Viral isolate resistance assay per Markowitz et al., NLA(P19-003); type: cell-based, HIV-1; settings: Human immunodeficiency virus 1, read-out: Virus Isolate (EC50 nM) NLA(P19-003)
Excerpt: as §1

[6] = test system: NL4(P37-538); experiment: Viral isolate resistance assay per Markowitz et al., NL4(P37-538); type: cell-based, HIV-1; settings: Human immunodeficiency virus 1; Table 9; selected against Example 10, 37 passages; read-out: Virus Isolate (EC50 nM) NL4(P37-538)
Excerpt: (§2) RF represents the HIV-1 strain HIV-LRF and RFR represents a mixture of resistant strains obtained by selection of RF against the compound of Example 1. RFR comprises a mixture of viral strains having protease genotypes of G48V (14/40 clones); G48V, V82A (18/40 clones); G48V, L90S (2/40 clones); G48V, 154T, V82A (1/40 clones); G48M (1/40 clones); G48V, Q61H (1/40 clones); V13I, G48V (1/40 clones); G48V, F53L, V82A (1/40 clones); and G48V, V82A, C95Y (1/40 clones). RFR2 represents a mixture of resistant strains obtained by cloning RFR by three rounds of growth at limiting dilution. RFR2 comprises a mixture of viral strains having protease genotypes of G48V, V82A (13/15 clones); G17E, G48V, V82A (1/15 clones); and G48V, V82A, N37D, N88D (1/15 clones). RFRR represents a mixture of resistant strains obtained by selection of RF against the compounds of Examples 1 and 2 and then cloning by three rounds of growth at limiting dilution. RFRR comprises a mixture of viral strains having protease genotypes of G48V, 154T, L63P, V82A (7/9 clones); G48V, 154T, L63P, V82A, N88S (1/9 clones); and G48V, 154T, L63P, G73M, V82A (1/9 clones). SF162 represents the HIV-1 strain SF-162 and SF162R represents a mixture of resistant strains obtained by selection of SF162 against the compound of Example 1. SF162R comprises a mixture of viral strains having protease genotypes of M461, F53L, L63P, A71V, N88D (2/3 clones); and M46I, F53L, L63P, A71V, N88D, Q92R (1/3 clones). 89-959 represents the HIV-1 strain 89-959 and 89-959R represents a mixture of resistant strains obtained by selection of 89-959 against the compound of Example 2. 89-959R comprises a mixture of viral strains having protease genotypes of N88S (4/5 clones); and D25N, T26A, D30N, D37N, R41K, G73D, R87K, N88S (1/4 clones). NL4 represents the HIV-1 strain HIV-1NL4-3. NL4(G48V) represents a strain having a synthetically generated site-directed mutation in the protease from glycine to valine at amino acid position number 48. NL4(I84V) represents a strain having a synthetically generated site-directed mutation in the protease from isoleucine to valine at amino acid position number 84. NL4(R8Q,M46I) represents a strain having synthetically generated site-directed mutations in the protease from arginine to glutamine at amino acid position number 8 and methionine to isoleucine at amino acid position number 46. NL4(P22-538) represents a mixture of resistant strains obtained by selection of HIV-1NL4-3 against the compound of Example 10 after 22 passages comprising protease genotypes M46I, L63P, A71V, V82F, I84V (4/10); M46I, L63P, V82F, I84V (3/10); and M46I, A71V, V82F, I84V (3/10). NL4(P37-538) represents resistant strains obtained by selection of HIV-1NL4-3 against the compound of Example 10 after 37 passages comprising protease genotype M46I, L63P, A71V, 184A. NL4(538/524) represents resistant strains obtained by selection of NL4(P22-538) against the compound of Example 5 after 24 passages comprising protease genotype M46I, L63P, A71V, 184A. NL4(538/P7-AG) represents a mixture of resistant strains obtained by selection of NL4(P22-538) against the compound of Example 12 after 7 passages comprising protease genotypes M46I, L63P, A71V, 184A; and V321, V82I. NL4(538/P24-AG) represents resistant strains obtained by selection of NL4(P22-538) against the compound of Example 12 after 24 passages comprising protease genotype M46I, L63P, A71V, 184A. NLA(P19-003) represents resistant strains obtained by selection of HIV-1^NL4-3 against the compound of Example 9 after 19 passages comprising protease genotype R8K, M46I. NL4(P34-003) represents resistant strains obtained by selection of HIV-1^NL4-3 against the compound of Example 9 after 34 passages comprising protease genotype R8K, M46I, L63P, A71V, L90M.
The viral isolate resistance results summarized in Tables 7-11 were generated according to the assay procedures described by Markowitz et al., Journal of Virology, vol. […]

[7] = test system: NL4(I84V); experiment: Viral isolate resistance assay per Markowitz et al., NL4(I84V); type: cell-based, HIV-1; settings: Human immunodeficiency virus 1, Table 7
Excerpt: (§3) RF represents the HIV-1 strain HIV-LRF and RFR represents a mixture of resistant strains obtained by selection of RF against the compound of Example 1. […] RFR2 represents a mixture of resistant strains obtained by cloning RFR by three rounds of growth at limiting dilution. […] RFRR represents a mixture of resistant strains obtained by selection of RF against the compounds of Examples 1 and 2 and then cloning by three rounds of growth at limiting dilution. […] SF162 represents the HIV-1 strain SF-162 and SF162R represents a mixture of resistant strains obtained by selection of SF162 against the compound of Example 1. […] 89-959 represents the HIV-1 strain 89-959 and 89-959R represents a mixture of resistant strains obtained by selection of 89-959 against the compound of Example 2. […] NL4 represents the HIV-1 strain HIV-1NL4-3. NL4(G48V) represents a strain having a synthetically generated site-directed mutation in the protease from glycine to valine at amino acid position number 48. NL4(I84V) represents a strain having a synthetically generated site-directed mutation in the protease from isoleucine to valine at amino acid position number 84. NL4(R8Q,M46I) represents a strain having synthetically generated site-directed mutations in the protease from arginine to glutamine at amino acid position number 8 and methionine to isoleucine at amino acid position number 46.

[8] = test system: NL4(538/P24-AG); experiment: Viral isolate resistance assay per Markowitz et al., NL4(538/P24-AG); type: cell-based, HIV-1; settings: Human immunodeficiency virus 1; Table 10; NL4(P22-538) selected against Example 12, 24 passages
Excerpt: as §2, with “NLA(P19-003) represents resistant strains obtained by selection of HIV-1^NL4-3 against the compound of Example 9 after 19 passages comprising protease genotype R8K, M46I. NL4(P34-003) represents resistant strains obtained by selection of HIV-1^NL4-3 against the compound of Example 9 after 34 passages comprising protease genotype R8K, M46I, L63P, A71V, L90M.” left out

[9] = test system: NL4(538/P7-AG); experiment: Viral isolate resistance assay per Markowitz et al., NL4(538/P7-AG); type: cell-based, HIV-1; settings: Human immunodeficiency virus 1; Table 10; NL4(P22-538) selected against Example 12, 7 passages
Excerpt: as §2, with “NLA(P19-003) represents resistant strains obtained by selection of HIV-1^NL4-3 against the compound of Example 9 after 19 passages comprising protease genotype R8K, M46I. NL4(P34-003) represents resistant strains obtained by selection of HIV-1^NL4-3 against the compound of Example 9 after 34 passages comprising protease genotype R8K, M46I, L63P, A71V, L90M.” left out

[10] = test system: HIV-1NL4-3; experiment: microbe, parasite or virus in culture; type: cell-based; settings: Human immunodeficiency virus 1, NL4
Excerpt: as §3

[11] = test system: NL4(G48V); experiment: Viral isolate resistance assay per Markowitz et al., NL4(G48V); type: cell-based, HIV-1; settings: Human immunodeficiency virus 1, Table 7
Excerpt: as §3

Nc1cccc(CN2C(=O)N(Cc3cccc(N)c3)[C@H](Cc3ccccc3)[C@H](O)[C@@H](O)[C@H]2Cc2ccccc2)c1 [Example 13, [4R-(4α,5α,6β,7β)]-1,3-bis[(3-aminophenyl)methyl]hexahydro-5,6-dihydroxy-4,7-bis(phenylmethyl)-2H-1,3-diazepin-2-one]
EC50 [1]: 1250 nM | EC50 [2]: 5000 nM | EC50 [3]: > 31200 nM | EC50 [4]: 750 nM | EC50 [5]: 1250 nM | EC50 [6]: > 31200 nM | EC90 [7]: 6250 nM | EC50 [8]: > 31200 nM | EC50 [9]: > 31200 nM | EC90 ([10]; Table 7, EC90, read-out: Virus Isolate (EC90 nM) NL4): 250 nM | EC50 ([10]; Table 8, read-out: Virus Isolate (EC50 nM) NL4): 250 nM | EC90 [11]: 1000 nM
